This is an account of results in US20170136008A1, “OXABICYCLOHEPTANES AND OXABICYCLOHEPTENES FOR THE TREATMENT OF OVARIAN CANCER” (priority 2014, published 2017).

Broadly, the IC50 is the point on the concentration scale where inhibition reaches its midpoint.

One experiment has as its target T1, PP2A (Homo sapiens, UniProt P67775).
T1 construct: endogenous in cells; host or cells: SKOV-3 ovarian cancer cells (lysate supernatant, assayed with the Millipore PP2A Phosphatase Assay Kit)
Nature of the experiment: PP2A phosphatase activity assay. The class given is cell-based. The conditions noted are these: cell lysate from SKOV-3 cells, 2 h treatment. Here is the method:
Ovarian cancer cells were grown to 80% confluence in 100 mm dishes and treated with LB100 as indicated and prepared as described previously (Wei, D. et al. 2013). Following treatment for 2 h, cells were washed twice with cold PBS (pH7.4) and lysed in lysis buffer (20 mmol/L imidazole-HCL, 2 mmol/L EDTA, 2 mmol/L EGTA, pH 7.0) supplemented with protease inhibitors (Roche) for 30 minutes on ice. Cell lysates were sonicated for 10 s then centrifuged at 2,000×g for 5 min. Supernatants were assayed with the PP2A Phosphatase Assay Kit (Millipore, Billerica, Mass.) according to the manufacturer's instructions. Experiments were performed in triplicate, and the data are presented as a percent mean of relative PP2A activity compared to control ±SD.

Experiment [1] concerns DNA damage response, checkpoint and apoptosis proteins in SKOV-3 cells. Nature of the experiment: Immunoblotting, SKOV-3 cells. The class given is cell-based, human. Here is the method:
Whole cell and homogenized tumor tissues were lysed in NP-40 lysis buffer [50 mM Tris/HCl, pH 7.4, 150 mM NaCl and 1% Nonidet P40, supplemented with Complete Protrase Inhibitor Cocktail tablets and PhosStop phosphatase inhibitors (Roche, Indianapolis, Ind.)] and prepared as previously described (Madigan, J. P. et al. 2009). Protein (40 μg) was resolved on SDS/PAGE (12% or 15% gels) and transferred onto Immobilon PVDF membrane. The membrane was then blocked for 1 hour at room temperature in 5% (w/v) non-fat milk in TBS-Tween and probed overnight with primary antibodies. After extensive washing, cells were probed with anti-rabbit or anti-mouse IgG-horseradish per oxidase (HRP)-conjugated secondary antibodies (Cell Signaling Technology, Danvers, Mass.) in blocking buffer for 1 h. Membranes were subsequently incubated in Immobilon Western blot Chemiluminescent HRP Substrate (Millipore) and developed on biomax XAR film (Kodak). Antibodies were purchased from Cell Signaling Technology: γH2AX (Ser139), p-Wee1 (Ser 642), Wee1, p-cdc2 (Tyr15), p-BRCA1 (Ser1524), p-Chk1 (Ser345), p-Chk1 (Ser317), Chk-1, phospho-Chk2 (Thr68), PP2Ac, cleaved caspase-3 (Asp175), cleaved PARP (Asp214), p-histone H3 (Ser10), p-ATR (Ser428), and p-(Ser)14-3-3 binding motif.
For orientation: In western blotting, separated proteins are transferred to a membrane and probed.

Experiment [2] concerns OVCAR-8 ovarian cancer cells. Nature of the experiment: MTT cytotoxicity assay, OVCAR-8. The class given is cell-based, human. The conditions noted are these: Homo sapiens, OVCAR-8, OVCAR8, read-out: IC50, viability of ovarian cancer cell line. As for the experimental part:
(§1) SKOV-3 ovarian cancer cells were purchased from American Type Culture Collection (ATCC) (Manassas, Va.). SKOV-3 cells were cultured in McCoy's 5A medium (ATCC, Manassas, Va.) supplemented with 10% fetal bovine serum and 100 units/mL penicillin G sodium, 100 ug/mL streptomycin sulfate, and 292 μg/ml, L-glutamine (BioWhittaker, Wakersville, Md.). Luciferase-expressing cells were generated by infecting SKOV-3 cells with pCLNCX-luciferase retrovirus (SKOV-3-Luc) as previously reported (Wei, B. R. et al. 2009). Human OVCAR-8 ovarian cancer cells were provided by the National Cancer Institute (part of the NCI-60 collection). The PEO1, PEO4, and PEO6 ovarian cancer cell lines have previously been characterized (Langdon, S. P. et al. 1988) and were kindly provided by Dr. Ian Goldlust (National Center for Advancing Translational Sciences, Shady Grove, Md.). […]
(§2) Cell survival was measured by the 3-(4,5-dimethylthiazol-2-yl)-2,5-diphenyltetrazolium bromide (MTT, Invitrogen) assay. […] Absorbance values were determined at […] on a Spectra Max 250 spectrophotometer (Molecular Devices, Sunnyvale, Calif.). […] Cell viability was analyzed via the MTT assay as described above. […]
In general terms: Tetrazolium assays rely on reduction of a dye to a coloured formazan, in cell work by metabolically active cells.

In experiment [3] the test system is SKOV-3 ovarian cancer cells. Nature of the experiment: MTT cytotoxicity assay, SKOV-3. Type of experiment: cell-based, human.
For experiment [4], the system named is PEO1-Missense (PEO-1m) ovarian cancer cell line. Nature of the experiment: MTT cytotoxicity assay, PEO1-Missense. The class given is cell-based, human. The conditions noted are these: Homo sapiens, read-out: IC50, viability of ovarian cancer cell line. As for the experimental part:
as §1, §2

The subject of experiment [5] is PEO1-STOP (PEO-1s) ovarian cancer cell line. Description: MTT cytotoxicity assay, PEO1-STOP. The conditions noted are these: Homo sapiens, read-out: IC50, viability of ovarian cancer cell line. Type of experiment: cell-based, human. Here is the method:
as §1, §2

The test system of experiment [6] is PEO6 ovarian cancer cell line. Description: MTT cytotoxicity assay, PEO6. Type of experiment: cell-based, human. The conditions noted are these: Homo sapiens, read-out: IC50, viability of ovarian cancer cell line. Here is the method:
as §1, §2

T1 sequence (P67775 whole entry): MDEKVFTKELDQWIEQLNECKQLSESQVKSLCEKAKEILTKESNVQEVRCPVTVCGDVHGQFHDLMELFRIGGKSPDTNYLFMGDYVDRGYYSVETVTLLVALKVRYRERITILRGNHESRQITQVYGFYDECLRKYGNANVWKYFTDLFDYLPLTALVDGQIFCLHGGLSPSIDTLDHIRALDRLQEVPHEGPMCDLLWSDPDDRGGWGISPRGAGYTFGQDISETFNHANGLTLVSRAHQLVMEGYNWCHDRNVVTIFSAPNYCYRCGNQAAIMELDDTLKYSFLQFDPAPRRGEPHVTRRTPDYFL
T1 sequence (P30153 2-589 partner limits assumed): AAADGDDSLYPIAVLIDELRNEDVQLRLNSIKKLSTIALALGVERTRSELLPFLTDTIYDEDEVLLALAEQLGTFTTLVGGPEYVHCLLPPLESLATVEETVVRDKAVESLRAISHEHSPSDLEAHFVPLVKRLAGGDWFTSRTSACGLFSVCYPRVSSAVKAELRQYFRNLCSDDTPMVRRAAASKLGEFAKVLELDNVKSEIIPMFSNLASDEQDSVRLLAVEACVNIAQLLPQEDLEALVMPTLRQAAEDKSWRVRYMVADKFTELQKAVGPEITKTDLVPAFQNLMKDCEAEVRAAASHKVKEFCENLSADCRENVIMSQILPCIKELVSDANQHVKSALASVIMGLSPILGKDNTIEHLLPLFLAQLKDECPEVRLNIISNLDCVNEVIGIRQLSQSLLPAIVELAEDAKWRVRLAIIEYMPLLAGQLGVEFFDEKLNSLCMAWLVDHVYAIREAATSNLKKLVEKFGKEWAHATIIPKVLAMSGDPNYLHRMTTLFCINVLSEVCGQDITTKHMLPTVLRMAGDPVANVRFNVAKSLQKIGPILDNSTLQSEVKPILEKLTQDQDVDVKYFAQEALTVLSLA

With `CN1CCN(C(=O)C2C(C(=O)O)[C@H]3CC[C@@H]2O3)CC1` (stereo partly shown) [LB100], on PP2A, the PP2A enzymatic function entry is recorded as “concentration-dependent decrease”. In experiment [1] (LB100-treated SKOV-3 cells), the “expression of p-Ser14-3-3 binding motifs compared to control treatment” value was “widespread increased expression”. In addition, the “phosphorylation of γH2AX, Chk2, and BRCA1 at 24 h, and JNK at 72 h” value in experiment [1] (SKOV-3, LB100) was “enhanced and prolonged”. In addition, in experiment [1] (SKOV-3, LB100 5 μM, 24 h), the “phosphorylation of Wee-1 compared to control” value is “induced hyperphosphorylation”. Besides, the IC50 in experiment [2] was found to be 5.5 ± 0.5 µM; in experiment [3] (Homo sapiens, SK-OV-3, SK-OV3, MTT, read-out: IC50, viability of ovarian cancer cell line) it was 10.1 ± 1.6 µM; in experiment [4], 6.2 ± 1.5 µM; in experiment [5] it was 6.9 ± 1 µM; in experiment [6], 5.1 ± 0.2 µM. Further, the “fold less sensitive compared to the other ovarian lines” value in experiment [3] (SKOV-3 vs other ovarian lines) worked out at 2 fold.
